Data as given in paper PMC10017709, “Structural basis of selective cannabinoid CB2 receptor activation” (Nature Communications, 2023).
Several values for one entry are separate records, joined by “and”; a condition that tells them apart may be missing. Equal values may be shown once.

Experiments:
CB1R-H270^ECL2L [1] = molecular target: T1, CB1R-H270^ECL2L (Homo sapiens, UniProt P21554, H270L); assay: [3H]CP55,940 displacement assay, CB1R H270L mutant; type: binding
CB1R D266ECL2E [2] = molecular target: T2, CB1R D266ECL2E (Homo sapiens, UniProt P21554, D266E); assay: [3H]CP55,940 displacement assay, CB1R D266E mutant; type: binding
T2 construct: The WT CB1R and CB2R genes were subcloned into vector pcDNA3.1; HA signal peptide (N); expressed in transfected cells; host or cells: HEK293T (transient, membrane homogenates)

CB2R-V261^6.51L = CB2R-V261^6.51L (Homo sapiens, UniProt P34972, V261L); assay: [35S]GTPγS assay, CB2R V261L mutant; type: biochemical; conditions: for [35S]GTPγS binding: V2616.51L, individual replicates
CB1R-H270^ECL2L [3] = molecular target: T1, CB1R-H270^ECL2L; assay: [35S]GTPγS assay, CB1R H270L mutant; type: biochemical; conditions: CB1R H270L; 10 µM agonist
hCB2R = molecular target: T3, hCB2R (Homo sapiens, UniProt P34972); assay: [3H]RO6957022 displacement assay; type: binding; conditions: individual replicates
T3 construct: host or cells: CHO-K1 (CHOK1_hCB2bgal, PathHunter), membranes

CB1R D266ECL2E [4] = molecular target: T2, CB1R D266ECL2E; assay: [35S]GTPγS assay, CB1R D266E mutant; type: biochemical; conditions: CB1R D266E; 10 µM agonist
CB2R-F117^3.36A = CB2R-F117^3.36A (Homo sapiens, UniProt P34972, F117A); assay: [35S]GTPγS assay, CB2R F117A mutant; type: biochemical
CB2R-I110^3.29L = CB2R-I110^3.29L (Homo sapiens, UniProt P34972, I110L); assay: [3H]CP55,940 displacement assay, CB2R I110L mutant; type: binding; conditions: I1103.29L, individual replicates
CB2R-L185^ECL2H = CB2R-L185^ECL2H (Homo sapiens, UniProt P34972, L185H); assay: [35S]GTPγS assay, CB2R L185H mutant; type: biochemical; conditions: L185H mutant; at 10 µM compared to WT; read-out: Emax (%)
Sequence of CB2R-L185^ECL2H (P34972 whole entry L185H): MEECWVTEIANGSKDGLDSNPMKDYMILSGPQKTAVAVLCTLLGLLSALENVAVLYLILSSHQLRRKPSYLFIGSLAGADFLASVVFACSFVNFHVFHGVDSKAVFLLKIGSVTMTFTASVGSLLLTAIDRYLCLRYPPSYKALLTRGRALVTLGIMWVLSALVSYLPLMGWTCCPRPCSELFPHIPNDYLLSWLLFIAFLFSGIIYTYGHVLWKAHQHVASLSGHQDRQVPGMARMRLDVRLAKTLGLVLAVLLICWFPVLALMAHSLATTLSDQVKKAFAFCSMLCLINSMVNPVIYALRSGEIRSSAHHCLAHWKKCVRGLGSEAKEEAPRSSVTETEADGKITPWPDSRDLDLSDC

T2 sequence (P21554 whole entry D266E): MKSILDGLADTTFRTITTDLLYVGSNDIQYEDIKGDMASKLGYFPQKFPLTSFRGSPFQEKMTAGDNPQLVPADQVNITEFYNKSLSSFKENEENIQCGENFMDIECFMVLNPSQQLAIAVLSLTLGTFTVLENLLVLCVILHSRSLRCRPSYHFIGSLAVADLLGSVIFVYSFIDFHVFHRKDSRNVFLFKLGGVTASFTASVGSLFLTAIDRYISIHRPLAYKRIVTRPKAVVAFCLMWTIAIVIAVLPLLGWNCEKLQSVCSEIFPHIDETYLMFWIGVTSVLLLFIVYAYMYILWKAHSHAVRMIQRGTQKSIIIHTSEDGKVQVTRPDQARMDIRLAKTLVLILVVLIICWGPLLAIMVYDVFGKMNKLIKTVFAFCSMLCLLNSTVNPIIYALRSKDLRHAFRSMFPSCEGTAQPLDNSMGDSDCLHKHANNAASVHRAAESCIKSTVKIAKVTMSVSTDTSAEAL
Sequence of CB2R-V261^6.51L (P34972 whole entry V261L): as the sequence (P34972 whole entry L185H) above, with H185L, V261L counted along it
Sequence of CB2R-F117^3.36A (P34972 whole entry F117A): as the sequence (P34972 whole entry L185H) above, with F117A, H185L counted along it
T3 sequence (P34972 whole entry): as the sequence (P34972 whole entry L185H) above, with H185L counted along it
Sequence of CB2R-I110^3.29L (P34972 whole entry I110L): as the sequence (P34972 whole entry L185H) above, with I110L, H185L counted along it
T1 sequence (P21554 whole entry H270L): as the sequence (P21554 whole entry D266E) above, with E266D, H270L counted along it

`CC(C)(C)[C@@H](CO)NC(=O)c1nn(-c2c[n+]([O-])ccn2)c2c1C[C@@H]1C[C@H]21` [APD371] was tested, and the “percentage specific [3H]CP55,940 binding” value (CB1R-H270^ECL2L [1]; CB1R H270ECL2L, 10 µM ligand, replicates 1-3) was 89.52 percentage and 87.15 percentage and 98.55 percentage, the “Displacement (%) of [3H]CP55,940” value (CB1R-H270^ECL2L [1]; CB1R H270L, 10 µM compound) was 8 ± 3% and the “Displacement (%) of [3H]CP55,940” value (CB1R D266ECL2E [2]; CB1R D266E, 10 µM compound) was 12 ± 7%. The “percentage specific [3H]CP55,940 binding” value (CB1R D266ECL2E [2]; CB1R D266ECL2E, 10 µM ligand, replicates 1-3) was 74.46 percentage and 89.45 percentage and 99.44 percentage, the “drop in potency compared to WT” value (CB2R-V261^6.51L; V261L mutant vs WT, [35S]GTPγS) was 10 fold and the Emax (CB2R-V261^6.51L; V261L mutant, at 10 µM compared to WT, read-out: Emax (%)) was 6 ± 2%. The “[35S]GTPγS binding” value (CB2R-V261^6.51L; log [ligand] (M) -5) was 2.52 percentage of WT and 5.75 percentage of WT and 9.01 percentage of WT, the “[35S]GTPγS binding” value (CB2R-V261^6.51L; log [ligand] (M) -6) was -3.29 percentage of WT and 5.08 percentage of WT and 17.22 percentage of WT and the “[35S]GTPγS binding” value (CB2R-V261^6.51L; log [ligand] (M) -7) was 3.77 percentage of WT and -3.23 percentage of WT and 7.12 percentage of WT. For the same compound, the “[35S]GTPγS binding” value (CB2R-V261^6.51L; log [ligand] (M) -8) was -13.41 percentage of WT and -9.01 percentage of WT and -7.07 percentage of WT, the “[35S]GTPγS binding” value (CB2R-V261^6.51L; log [ligand] (M) -9) was -3.12 percentage of WT and -6.34 percentage of WT and -8.82 percentage of WT and the “[35S]GTPγS binding” value (CB2R-V261^6.51L; log [ligand] (M) -10) was 6.63 percentage of WT and -9.97 percentage of WT and -1.94 percentage of WT. For the same compound, the Agonist-mediated activation (CB1R-H270^ECL2L [3]) was 1.1 ± 0.0 fold over its basal, the “percentage specific [3H]RO6957022 binding (displacement)” value (“percentage specific … (displacement)” for short) (hCB2R; log [agonist] (M) -5) was 6.59% and 5.28% and -3.87% and the “percentage specific … (displacement)” value (hCB2R; log [agonist] (M) -6) was 1.67% and 12.98% and 3.83%. For the same compound, the “percentage specific … (displacement)” value (hCB2R; log [agonist] (M) -7) was 44.82% and 59.70% and 42.04%, the “percentage specific … (displacement)” value (hCB2R; log [agonist] (M) -7.5) was 76.53% and 76.83% and 76.84% and the “percentage specific … (displacement)” value (hCB2R; log [agonist] (M) -8) was 102.92% and 92.08% and 89.96%. For the same compound, the “percentage specific … (displacement)” value (hCB2R; log [agonist] (M) -9) was 120.09% and 94.02% and 99.12%, the Agonist-mediated activation (CB1R D266ECL2E [4]) was 0.9 ± 0.1 fold over its basal and the Emax (CB2R-F117^3.36A; F117A mutant, at 10 µM compared to WT, read-out: Emax (%)) was 2 ± 6%. For the same compound, the “[35S]GTPγS binding” value (CB2R-F117^3.36A; F1173.36A, log [ligand] (M) -5, individual replicates) was -3.66 percentage of WT and 14.36 percentage of WT and -4.64 percentage of WT, the “percentage specific [3H]CP55,940 binding” value (CB2R-I110^3.29L; log [ligand] (M) -5) was 4.49% and 2.95% and 7.70% and the “percentage specific [3H]CP55,940 binding” value (CB2R-I110^3.29L; log [ligand] (M) -6) was 22.45% and 22.51% and 25.37%. For the same compound, the “percentage specific [3H]CP55,940 binding” value (CB2R-I110^3.29L; log [ligand] (M) -7) was 63.92% and 66.51% and 68.51%, the “percentage specific [3H]CP55,940 binding” value (CB2R-I110^3.29L; log [ligand] (M) -8) was 89.64% and 87.54% and 115.07% and the “percentage specific [3H]CP55,940 binding” value (CB2R-I110^3.29L; log [ligand] (M) -9) was 93.11% and 90.99% and 98.90%. For the same compound, the “percentage specific [3H]CP55,940 binding” value (CB2R-I110^3.29L; log [ligand] (M) -10) was 86.70% and 95.29% and 99.01% and the Emax (CB2R-L185^ECL2H) was 183 ± 16%.
